The subject of assay [1] is FANCD2 in HeLa cell extracts. Nature of the assay: Western blot for FANCD2. Conditions: 0.5 μg/mL mitomycin C or 7.5 μg/mL cisplatin, 4 hours, no bacteria. It is filed as cell-based, human. As to the method:
Western Blot for FANCD2. Infections were carried out as described above. For conditions which involved other small molecules, no bacteria were introduced during the infection and cells were treated with either 0.5 μg/mL mitomycin C (MMC) or 7.5 μg/mL cisplatin under the same conditions for 4 hours. 20 hours after infection, cells were lysed directly in the culture wells (Lysis buffer: 50 mM Tris, (pH 8.0), 150 mM NaCl, 1% Triton X-100, 0.5% Sodium deoxycholate, 0.05% sodium dodecylsulfate, 1 mM MgSO4, SIGMAFAST Protease inhibitor mix, 100 U/mL benzonase (Millipore-Sigma). Lysates were then spun down at 16,000×g to remove particulates and the supernatant was mixed 1:1 with 2X Laemmli sample buffer (Bio-Rad) containing 50 mg/mL dithiothreitol (DTT). Samples were then heated at 70° C. for 10 minutes and run on an SDS-PAGE gel (3-8% Tris-Acetate Novex gel, Invitrogen) at 150 V for 1.5 hours at 4° C. Bands were then transferred to PVDF membranes (100 V, 1 hour at 4° C.) and blocked with 10% skim milk powder in TBST buffer at 4° C. overnight. Blots were probed sequentially with either mouse anti-actin (1.5 μg/mL) or mouse anti-FANCD2 (0.1 μg/mL) primary antibodies (Thermo Fisher Scientific, Catalog #MA511869 and MA123347), followed by a peroxidase-conjugated goat anti-mouse secondary antibody (Jackson ImmunoResearch product 115-035-003, 0.08 μg/mL). Each probing step was conducted for 90 minutes at room temperature n 2.5% skim milk powder in TBST. Before imaging, blots were washed 3×15 minutes each in TBST […]. Blots were imaged using the SuperSignal™ West Pico PLUS Chemiluminescent Substrate (Thermo Fisher Scientific) kit following the manufacturer's instructions and imaged using an Azure Biosystems c300 imager.
Background: A western blot detects proteins with antibodies after separation by electrophoresis.

The subject of assay [2] is Escherichia coli NC101. Nature of the assay: Bacterial MIC assay (broth dilution). It is filed as cell-based. The settings on record: read-out: MICs by compound. As to the method:
(§1) MICs of compounds against different bacterial species were determined using a modified version of a broth microdilution protocol which has been previously reported.^1 Briefly, cultures of each species indicated were inoculated from frozen stocks in deoxygenated Wilkins-Chalgren Anaerobic Medium (WCAM) inside of an anerobic chamber with an 92.5% N2/5% CO2/2.5% H2 atmosphere. Cultures were grown for 24-48 hours in a 37° C. incubator at which point an OD600-measurement was taken for each culture and was accordingly diluted in fresh WCAM to an equivalent of OD600=0.01. Diluted cultures were then distributed into the wells of a clear, flat-bottom 384-well plate and the compound of interest was added to a final DMSO concentration of 2% (or DMSO only for positive controls). […] mineral oil (Millipore Sigma) was deposited on top of the cultures and plates were covered with a clear adhesive plate seal. Plates were incubated at 37° C. for 16 hours, at which point the OD600 of all wells was recorded on a SpectraMax M2 plate reader (Molecular Devices).
On the technique in general: Dilution methods test growth across graded concentrations, often in twofold steps.

For assay [3], the system named is a variety of bacterial strains from common gut phyla, including E. coli. Nature of the assay: Turbidity MIC assay, all strains together. The settings on record: Escherichia coli; all strains tested; upper limit tested 200 μM; read-out: MICs in liquid culture. The format is cell-based.
Description: Compound 3 is an inhibitor of colibactin-associated genotoxicity. Since colibactin is produced in the context of the gut microbiota, it is essential to understand how 3 can affect other members of this community and whether it remains an effective inhibitor under these conditions. […] A turbidity assay was used to determine minimum inhibitory concentrations (MICs) in liquid culture of 1-4 against a variety of bacterial strains from common gut phyla, including E. coli (Table 3).
as §1

Assay [4] has as its system Enterococcus faecalis. Nature of the assay: Bacterial MIC assay (broth dilution). Conditions: read-out: MICs by compound. It is filed as cell-based.
The subject of assay [5] is Bifidobacterium longum. The experiment in a line: Bacterial MIC assay (broth dilution). The format is cell-based. The settings on record: read-out: MICs by compound.
Assay [6] relates to Klebsiella oxytoca. Nature of the assay: Bacterial MIC assay (broth dilution). Conditions: read-out: MICs by compound. It is filed as cell-based.
The target of assay [7] is E. coli BL21 overexpressing ClbP (Escherichia coli, UniProt Q0P7K6). The experiment in a line: ClbP fluorescence activity assay (live cells). The format is cell-based. How it is done: ClbP fluorescence activity assay (live cells). One 5 mL starter culture each E. coli BL21 pET-29b-ClbP and pET-29b-ClbP-S95A were inoculated from frozen stocks and grown overnight at 37° C. in LB medium supplemented with 50 μg/ml kanamycin (LB+kan). Overnight cultures were diluted 1:100 in fresh LB+kan and incubated at 37° C. to an OD600 of 0.3, at which point protein expression was induced by the addition of 500 μM isopropyl β-D-1-thiogalactopyranoside (IPTG) and cultures were moved to 15° C. for 4 hours. Cultures were then aliquoted in a black 384-well plate and the appropriate concentration of inhibitor was added as a DMSO stocks to a final concentration of 1% DMSO in a volume of 30 μL. Reactions were initiated by the addition of 10 μL of LB+kan+IPTG containing the fluorogenic substrate (final concentration=100 μM). Plastes were incubated at 25° C. with intermittent shaking while taking regular fluorescence measurements in a Bio-Tek Synergy HTX multimode plate reader with an excitation filter of 360/40 nm and an emission filter of 440/20 nm. “% activity” was determined based on the formula above using RFU measurements after 7 hours.

Assay [8] concerns the target purified ClbP (Escherichia coli, UniProt Q0P7K6). The experiment in a line: ClbP fluorescence activity assay (in vitro). The format is biochemical, Escherichia coli CFT073. The settings on record: for speed of reaching maximum potency, in words: slow-binding inhibition assay, 100 nM. The source says:
Constructs and protein purification for in vitro assays. ClbP constructs described in this publication were derived from a previously described plasmid containing the Escherichia coli CFT073 ClbP sequence (GenBank ID: NP_754344.1) inserted between the NdeI and XhoI restriction sites of pET29b (Addgene plasmid #48244).^14 All in vitro experiments used a construct bearing a C-terminal 10×His tag. This longer polyhistidine-tag was obtained by extension of the previously described 6×His tag through site-directed mutagenesis. All site-directed mutations were introduced using the Quikchange mutagenesis protocol (Stratagene) and confirmed by Sanger DNA sequencing of the whole open reading frame. Plasmids were transformed into chemically competent C41(DE3) (Lucigen) cells and proteins were isolated as previously described.^34
ClbP fluorescence activity assay (in vitro). Assays were performed in a buffer containing 50 mM Tris, 200 mM NaCl, 0.02% w/v DDM at pH 8.0 with 25 nM purified ClbP and 25 μM fluorogenic substrate in a total volume of 20 μL.^34 Purified ClbP was defrosted on ice from stocks stored at −80° C. Stocks were diluted to 50 nM enzyme in assay buffer in the wells of a black, flat-bottom 384-well plate and the appropriate inhibitor in DMSO or DMSO was added to a final concentration of 1%. For experiments testing different inhibitor concentrations, reactions were allowed to sit for 1 hour at room temperature. For experiments testing different preincubation times, the inhibitor in DMSO was added to each reaction X minutes before initiating the reaction, where X is the time indicated on the x-axis for that sample. For experiments to test whether hydrolysis of the boronic ester was rate-limiting, the inhibitor was added to buffer with no enzyme present and allowed to sit at room temperature for the time indicated before adding the enzyme. In all cases, reactions were initiated by the addition of 10 μL, of buffer containing the 50 μM fluorogenic substrate to achieve a final concentration of 25 μM and pipetting once with a multichannel pipette to mix. Reaction progress was monitored in a plate reader (Bio-Tek Synergy HTX multimode plate reader) with an excitation filter of 360/40 nm and an emission filter of 440/20 nm. “% activity” was determined based on the measured relative fluorescence units (RFU) of each condition after 1 hour using the following formula: […]

For assay [9], the system named is Lactobacillus rhamnosus. The experiment in a line: Bacterial MIC assay (broth dilution). The format is cell-based. The settings on record: Lacticaseibacillus rhamnosus, read-out: MICs by compound.
In assay [10] the test system is ClbP. The experiment in a line: LC-MS quantitation of N-myristoyl-D-Asn produced by pks+ E. coli. The settings on record: pks+ E. coli (BW pks), versus DMSO. It is filed as cell-based, E. coli BW25113 BACpks. How it is done: LC-MS quantitation of N-myristoyl-D-Asn produced by pks^+ E. coli. One 5 mL starter culture each of E. coli BW25113 BACpks and E. coli BW25113 BACpksΔclbP was inoculated from frozen stocks and grown overnight at 37° C. in LB medium supplemented with 35 μg/ml chloramphenicol (LB+cam). Overnights were diluted 1:100 in fresh LB+cam+1% DMSO with the appropriate concentration of inhibitor and grown for 20 hours at 37° C. in a deep well plate in a shaking incubator. A 500 μL aliquot was taken from each sample, flash frozen in liquid nitrogen and lyophilized to dryness. Lyophilized pellets were extracted with 500 μL LC-MS grade methanol which contained 100 nM d27-N-myristoyl-D-asparagine as an internal standard, prepared as previously described, and vortexed for 30 seconds. After centrifugation at 16,500×g for 10 minutes in a tabletop microcentrifuge, supernatants were transferred to fresh 1.5 mL tubes and stored at −20° C. overnight. Samples were centrifuged again, and the supernatants analyzed by LC-MS/MS on a Waters Xevo TQ-S UPLC-triple quadrupole mass spectrometer using an Agilent Poroshell 120 EC-C18 column (2.7 μm, 4.6 mm×50 mm). […]

[11] abbreviates: anaerobic, OD600 after 15 hours.

Converted amounts (≈) assume the structure as drawn. Like-named read-outs stand apart in the source and are kept apart here.

From patent US12115176B2, “Methods and compositions relating to ClbP inhibition” (PRESIDENT AND FELLOWS OF HARVARD COLLEGE, priority 2021, dated 2024) come the findings set out here.

For `CO[C@@]12[C@H](COC(N)=O)C3=C(C(=O)C(C)=C(N)C3=O)N1C[C@@H]1N[C@@H]12` [mitomycin C, reference compound], the “abundance of FANCD2-Ub in HeLa cells” value in assay [1] is given as “increase in abundance of FANCD2-Ub”.
For `CCCCCC(=O)N[C@H](CC(N)=O)B1OC(C)(C)C(C)(C)O1` [Compound 1], the MIC is above 200 µM in assay [2] (Escherichia coli, NC101, 15 h); above 200 µM in [3]; above 200 µM in [4] (15 h); above 200 µM in [5] (15 h); above 200 µM in [6] (15 h); above 200 µM in assay [9] (15 h). The figures for the half-maximal inhibitory concentration (IC50) in assay [7] and in assay [8] were 5.6 nM and 40 nM, respectively.
With `CC1(C)OB([C@@H](CC(N)=O)NC(=O)c2ccc3ccccc3c2)OC1(C)C` [Compound 2], the MIC in assay [2] (Escherichia coli, NC101, 15 h) was above 200 µM; in [3] it was above 200 µM; in assay [4] (15 h) it was above 200 µM; in assay [5] (15 h), above 200 µM; in [6] (15 h), above 200 µM; in assay [9] (15 h), above 200 µM. For the same compound, the IC50 in assay [7] turned out to be 7.2 nM; in [8] it was 34 nM. Moreover, in [8], the “speed of reaching maximum potency, in words” value is reported as “achieved their maximum potency faster than compound 4”.
As to `N.N.[Cl][Pt][Cl]` [cisplatin, reference compound], in assay [1], the “abundance of FANCD2-Ub in HeLa cells” value is “increase in abundance of FANCD2-Ub”.
Consider `O=C(N[C@H](CO)[C@H](O)c1ccc([N+](=O)[O-])cc1)C(Cl)Cl` [CAM, Chloramphenicol, reference compound], for which the MIC was found to be 25 µM (≈ 8.08 µg/mL) in [2] (Escherichia coli NC101, anaerobic, OD600 after 15 hours); 50 µM (≈ 16.2 µg/mL) in assay [4] (setting [11]); 12.5 µM (≈ 4.04 µg/mL) in [5] (setting [11]); 6.25 µM (≈ 2.02 µg/mL) in assay [6] (setting [11]); 25 µM (≈ 8.08 µg/mL) in assay [9] (Lactobacillus rhamnosus, anaerobic, OD600 after 15 hours).
Consider `CC1(C)OB([C@@H](CC(N)=O)NC(=O)c2ccccc2)OC1(C)C` [Compound 4], for which the MIC was above 200 µM in assay [2] (Escherichia coli, NC101, 15 h); above 200 µM in [3]; above 200 µM in assay [4] (15 h); above 200 µM in assay [5] (15 h); above 200 µM in assay [6] (15 h); above 200 µM in assay [9] (15 h). Further, in assay [10], the “quantity of N-myristoyl-D-Asn prodrug released” value was “slightly lower potency than the others”. Also, the values for the IC50 in assay [7] and in assay [8] were 27 nM and 69 nM, respectively. For the same compound, the “speed of reaching maximum potency, in words” value in [8] is “showed a significant lag”.

As usually defined, the IC50 is the concentration at which inhibition is half-maximal.
